Laboratory results published in US11147782B1, “GHB formulation and method for its manufacture” (JAZZ PHARMACEUTICALS IRELAND LIMITED, priority 2015, dated 2021).

Columns and labels:
[1] = Xyrem solution is 500 mg/mL (42 wt %); solubility limit considerably higher; cited from earlier work
[2] = Affinity for the exchange site of the anion exchange resin, estimated from pKa; type: physicochemical; settings: estimated from pKa relative to other short-chain fatty acids
Description: The affinity can be estimated based on the pKa of GHB (4.44) relative to other short-chain fatty acids for which affinities are known.

Row | SMILES | solubility limit in water [1] [mg/mL] | affinity relative to chloride on the anion exchange resin [2]
1 | O=C(O)CCCO [sodium oxybate, Sodium oxybate] | > 500 | –
2 | O=C(O)O [Bicarbonate] | – | about 27%
